Measurements taken from article PMC7931226 (Pharmacology Research & Perspectives, 2021).
Each block holds one compound with its values, some of them ahead of it.

Legend:
Caco-2 cells = details: range of substrates, well documented (ref not given); cited from earlier work
[1] = Rat plasma protein binding; type: in vitro ADME
MDCK-BCRP cells = details: range of substrates, well documented (ref not given); cited from earlier work
[2] = Elacridar plasma and brain exposure, constant infusion in rats; type: in vivo, Sprague Dawley rats; details: rat; for concentration at 4 h: Sprague Dawley, intravenous
Tolerability in rats = type: in vivo
[3] = system: P-gp and Bcrp (rat, blood-brain barrier); experiment: In vivo efflux ratio; design: species or system Sprague Dawley rats; details: Sprague Dawley, intravenous, with elacridar 8.9 mg/hr/kg, 4.5-hour constant infusion
BCRP = BCRP knockout; cited from earlier work
[4] = biological target: T1, Bcrp in the gut and biliary compartments (Rattus norvegicus, UniProt Q80W57); experiment: Oral PK of BCRP substrates with constant infusion of elacridar; type: in vivo; details: oral substrate with constant infusion of elacridar
T1 sequence (Q80W57 1-657): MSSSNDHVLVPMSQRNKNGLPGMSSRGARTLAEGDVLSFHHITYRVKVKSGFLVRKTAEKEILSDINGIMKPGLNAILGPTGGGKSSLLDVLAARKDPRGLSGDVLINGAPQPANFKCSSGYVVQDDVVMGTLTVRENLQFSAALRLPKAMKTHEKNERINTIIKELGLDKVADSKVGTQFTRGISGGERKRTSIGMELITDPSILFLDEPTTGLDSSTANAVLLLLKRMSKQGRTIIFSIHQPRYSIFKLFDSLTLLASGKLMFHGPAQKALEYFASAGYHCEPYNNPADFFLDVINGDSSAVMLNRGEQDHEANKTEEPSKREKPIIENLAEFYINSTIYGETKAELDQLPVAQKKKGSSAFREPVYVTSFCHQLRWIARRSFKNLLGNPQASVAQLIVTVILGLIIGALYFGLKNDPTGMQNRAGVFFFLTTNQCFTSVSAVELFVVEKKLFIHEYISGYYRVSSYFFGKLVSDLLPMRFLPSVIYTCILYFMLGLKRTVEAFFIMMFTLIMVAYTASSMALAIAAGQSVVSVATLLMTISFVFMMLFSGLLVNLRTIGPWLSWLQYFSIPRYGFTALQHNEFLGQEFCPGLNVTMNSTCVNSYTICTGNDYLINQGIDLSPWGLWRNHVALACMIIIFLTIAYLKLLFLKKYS

P-gp = details: ref 26 (Smith et al, 1998); cited from earlier work
rat P-gp at the BBB = experiment: In vivo efflux ratio; design: species or system Sprague Dawley rats; details: constant infusion, inhibition of P-gp at the BBB
[5] = Valspodar plasma and brain exposure, constant infusion or IV bolus in rats; type: in vivo, Sprague Dawley rats; details: rat; for concentration at 4 h: Sprague Dawley, plasma, intravenous
[6] = constant infusion, based upon 3x the half-life

free in rat plasma (free fraction) ([1]; well known (ref 27), confirmed in-house): 1.5% | concentration at 4 h ([2]; brain, 8.9 mg/hr/kg, total drug in brain, elacridar 8.9 mg/hr/kg constant infusion): > 45000 ng/g | concentration at 4 h ([2]; plasma, 8.9 mg/hr/kg, Elacridar (total plasma), elacridar 8.9 mg/hr/kg, 4.5-hour constant infusion, mean): > 2000 ng/mL | concentration at 4 h ([2]; plasma, 8.9 mg/hr/kg, steady state free plasma, elacridar 8.9 mg/hr/kg constant infusion (maximum)): 35 to 70 nM | concentration at 4 h ([2]; plasma, free plasma exposure, range over doses, 0.009 to 8.9 mg/hr/kg constant infusion, 1.5% rat plasma free fraction): 0.025 to 49 ng/mL | concentration at 4 h ([2]; plasma, total plasma exposure (mean), range over doses, 0.009 to 8.9 mg/hr/kg constant infusion over 4.5 hours): 1.6 to 3270 ng/mL | time to steady state in plasma [2, 6]: ≤ 2.5 h
Structure (SMILES): COc1cc2c(cc1OC)CN(CCc1ccc(NC(=O)c3cccc4c(=O)c5cccc(OC)c5[nH]c34)cc1)CC2 [elacridar, 9,10‐dihydro‐5‐methoxy‐9‐oxo‐N‐[4‐[2‐(1,2,3,4‐tetrahydro‐6,7‐dimethoxy‐2‐isoquinolinyl)ethyl]phenyl]‐4‐acridine‐carboxamide]
IC50 (Caco-2 cells): 600 nM | IC50 (MDCK-BCRP cells): 300 nM | side effects (Tolerability in rats; any study conditions up to 8-hour duration): no negative side effects were observed

efflux ratio at 4 h [3]: 5.4
Structure (SMILES): COc1ccc(Cl)cc1C(=O)NCCc1ccc(S(=O)(=O)NC(=O)NC2CCCCC2)cc1 [glyburide]
increase in placental tissue concentration (BCRP): 2.5 fold

increase in liver concentrations ([4]; 8 hours post-dose): 4 fold | half-life ([4]; up to 8 hours post-dose): significant increase
Structure (SMILES): O=C(O)c1cc(/N=N/c2ccc(S(=O)(=O)Nc3ccccn3)cc2)ccc1O [sulfasalazine]

clearance (calculated t1/2 and liver concentrations) [4]: not impacted
Structure (SMILES): CC[C@@]1(O)C(=O)OCc2c1cc1n(c2=O)Cc2cc3c(CN(C)C)c(O)ccc3nc2-1 [topotecan]

rat plasma binding ([1]; mean): 92% | concentration at 4 h ([5]; 8 mg/hr/kg, free plasma exposure, maximum soluble dose 8 mg/hr/kg constant infusion): 2140 nM | concentration at 4 h ([5]; free plasma exposure (mean), range over doses, 0.09 to 8 mg/hr/kg constant infusion over 4.5 hours, rat plasma binding = 92%): 32 to 2590 ng/mL | time to steady state in plasma [5, 6]: ≤ 2.5 h
Structure (SMILES): C/C=C/C[C@@H](C)C(=O)[C@H]1C(=O)N[C@@H](C(C)C)C(=O)N(C)CC(=O)N(C)[C@@H](CC(C)C)C(=O)N[C@@H](C(C)C)C(=O)N(C)[C@@H](CC(C)C)C(=O)N[C@@H](C)C(=O)N[C@H](C)C(=O)N(C)[C@@H](CC(C)C)C(=O)N(C)[C@@H](CC(C)C)C(=O)N(C)[C@@H](C(C)C)C(=O)N1C [valspodar]
decrease in in vitro efficacy from serum binding (P-gp): 23 fold | minimal (lowest) efficacious dose (rat P-gp at the BBB): 0.9 mg/h/kg | side effects (Tolerability in rats; IV bolus doses at 10 mg/kg or higher and repeat doses of 5 mg/kg or higher with less than 2 h between doses): lethargy and increased urination | side effects (Tolerability in rats; constant infusion 0.9 mg/hr/kg and 2.7 mg/hr/kg up to 8 hours): No side effects were observed | side effects (Tolerability in rats; constant infusion, highest dose 8 mg/hr/kg): some instances were observed
